The target of assay [1] is T1, P2Y purinoceptor 2 (Homo sapiens, UniProt P41231).
Description: Binding affinity to NanoLuc-fused P2Y2R (unknown origin) extracted from 1321N1 cell membrane incubated for 1 hr by NanoBRET assay
In assay [2] the target is T1, P2Y purinoceptor 2. Nature of the assay: Displacement of 2-((5-(7-chloro-2-((3-((2-(5-(3-(5,5-difluoro-7,9-dimethyl-5H-4lambda4,5lambda4-dipyrrolo[1,2-c:2',1'-f][1,3,2]diazaborinin-3-yl)propanamido)pentanamido)ethyl)amino)-3-oxopropyl)amino)-4H-benzo[5,6]cyclohepta[1,2-d]thiazol-4-yl)-2-oxo-4-thioxo-3,4-dihydropyrimidin-1(2H)-yl)methyl)-N-(1H-tetrazol-5-yl)thiazole-4-carboxamide from NLuc fused P2Y2R (unknown origin) extracted from 1321N1 cell membrane incubated for 1 hr by NanoBRET assay.

Assay [3] deals with T1, P2Y purinoceptor 2. This is another data set of the same source.
Description: Displacement of (E)-N6-(5-(bis(4-chlorophenyl)methyl)thiazol-2-yl)-N2-(6-(2-(4-(2-(5,5-difluoro-7-(thiophen-2-yl)-5H-4lambda4,5lambda4-dipyrrolo[1,2-c:2',1'-f][1,3,2]diazaborinin-3-yl)vinyl)phenoxy)acetamido)hexanoyl)-L-lysine from NLuc fused P2Y2R (unknown origin) extracted from 1321N1 cell membrane incubated for 1 hr by NanoBRET assay

T1 sequence (P41231 whole entry, the tested form may be a part): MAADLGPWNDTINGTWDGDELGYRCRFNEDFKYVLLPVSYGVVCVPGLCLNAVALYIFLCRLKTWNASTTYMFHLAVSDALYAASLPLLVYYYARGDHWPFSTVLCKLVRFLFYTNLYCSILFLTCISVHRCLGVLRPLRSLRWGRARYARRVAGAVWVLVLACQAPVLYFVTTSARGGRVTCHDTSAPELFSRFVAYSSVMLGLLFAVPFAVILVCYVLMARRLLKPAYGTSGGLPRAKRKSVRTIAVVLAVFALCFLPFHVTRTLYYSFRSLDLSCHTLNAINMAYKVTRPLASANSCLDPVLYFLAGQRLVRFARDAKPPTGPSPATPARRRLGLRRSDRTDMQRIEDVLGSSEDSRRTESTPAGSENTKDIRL

On P2Y purinoceptor 2 [1], `O=C(COc1ccc(/C=C/C2=[N+]3C(=Cc4ccc(-c5cccs5)n4[B-]3(F)F)C=C2)cc1)NCCCCCC(=O)N[C@@H](CCCNc1ncc(C(c2ccc(Cl)cc2)c2ccc(Cl)cc2)s1)C(=O)O` gave a Kd of 955 nM. The compound further showed a Ki on P2Y purinoceptor 2 [2] of 3.31 µM. In turn, `O=C(COc1ccc(/C=C/C2=[N+]3C(=Cc4ccc(-c5cccs5)n4[B-]3(F)F)C=C2)cc1)NCCCCCC(=O)N[C@@H](CCNc1ncc(C(c2ccc(Cl)cc2)c2ccc(Cl)cc2)s1)C(=O)O` had a Kd on P2Y purinoceptor 2 [1] of 2290 nM.

In the case of `CCOCCNc1ncc(C(c2ccc(Cl)cc2)c2ccc(Cl)cc2)s1`, the Ki on P2Y purinoceptor 2 [2] is around 1000 µM. In turn, `CN(C)c1ccc2c(-c3ccc(C(=O)N[C@@H](CCCNc4ncc(C(c5ccc(Cl)cc5)c5ccc(Cl)cc5)s4)C(=O)O)cc3C(=O)[O-])c3ccc(=[N+](C)C)cc-3oc2c1` gave a Kd at P2Y purinoceptor 2 [1] of 4170 nM. At P2Y purinoceptor 2 [3], `CCOCCNc1nc2c(s1)C=Cc1cc(Cl)ccc1[C@@H]2c1cn(C)c(=O)[nH]c1=S` (racemic) gave a Ki of 9.12 µM.

The values are drawn from ChEMBL document CHEMBL5584275, “Design, Synthesis, and Evaluation of a New Chemotype Fluorescent Ligand for the P2Y2 Receptor” (ACS Med Chem Lett, 2024).
